Results as given in ChEMBL document CHEMBL4419169, “Novel Ferroportin Inhibitors” (2018).
The source made the active and inactive calls. The rule behind the calls is not given here.

Key:
[1] = target: T1, Ferroportin (Mus musculus) (UniProt Q9JHI9); test: Inhibition of ferroportin in mouse J774 cells assessed as induce ferroportin ubiquitination and degradation at 0.3 uM incubated for 10 mins by immunoprecipitation assay; format: cell-based
T1 sequence (whole entry): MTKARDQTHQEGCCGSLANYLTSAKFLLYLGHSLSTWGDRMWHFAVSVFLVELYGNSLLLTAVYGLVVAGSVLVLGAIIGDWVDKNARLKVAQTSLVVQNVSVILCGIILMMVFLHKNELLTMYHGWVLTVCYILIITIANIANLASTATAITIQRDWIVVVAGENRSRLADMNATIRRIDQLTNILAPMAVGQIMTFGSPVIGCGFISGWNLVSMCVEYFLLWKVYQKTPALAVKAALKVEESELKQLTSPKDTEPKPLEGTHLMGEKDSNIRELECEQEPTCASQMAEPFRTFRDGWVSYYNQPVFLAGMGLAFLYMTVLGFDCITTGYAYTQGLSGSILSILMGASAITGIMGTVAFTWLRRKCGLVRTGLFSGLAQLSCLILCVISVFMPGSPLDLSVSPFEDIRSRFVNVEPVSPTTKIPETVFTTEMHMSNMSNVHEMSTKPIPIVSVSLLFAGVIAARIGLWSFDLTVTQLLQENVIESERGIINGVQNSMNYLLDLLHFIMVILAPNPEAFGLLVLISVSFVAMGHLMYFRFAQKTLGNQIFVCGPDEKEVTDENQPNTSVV

[2] = target: T1, Ferroportin (Mus musculus); test: Inhibition of ferroportin in mouse J774 cells assessed as induce ferroportin ubiquitination and degradation at 0.3 uM incubated for 120 mins by immunoprecipitation assay; format: cell-based
Mus musculus [3] = test: Induction of hypoferremia in orally dosed wild type C57BL/6 mouse assessed as decrease in serum iron levels measured after 3 hrs post dose; format: functional, organism-based
Mus musculus [4] = test: Prevention of hyperferremia in iron overloaded beta2-microglobulin deficient mouse assessed as reduction in serum iron level at 50 mg/kg, po measured after 3 hrs relative to control; format: functional, organism-based
[5] = target: T1, Ferroportin (Mus musculus); test: Inhibition of ferroportin in mouse J774 cells assessed as induce ferroportin ubiquitination and degradation at 0.05 uM incubated for 10 mins by immunoprecipitation assay; format: cell-based
[6] = target: T1, Ferroportin (Mus musculus); test: Inhibition of ferroportin in mouse J774 cells assessed as induce ferroportin ubiquitination and degradation at 0.05 uM incubated for 120 mins by immunoprecipitation assay; format: cell-based
[7] = target: T1, Ferroportin (Mus musculus); test: Inhibition of ferroportin in mouse J774 cells assessed as induce ferroportin ubiquitination and degradation at 1.5 uM incubated for 10 mins by immunoprecipitation assay; format: cell-based
[8] = target: T1, Ferroportin (Mus musculus); test: Inhibition of ferroportin in mouse J774 cells assessed as induce ferroportin ubiquitination and degradation at 1.5 uM incubated for 120 mins by immunoprecipitation assay; format: cell-based
[9] = target: T1, Ferroportin (Mus musculus); test: Inhibition of ferroportin in mouse J774 cells assessed as induce ferroportin ubiquitination and degradation at 0.5 uM incubated for 10 mins by immunoprecipitation assay; format: cell-based
[10] = target: T1, Ferroportin (Mus musculus); test: Inhibition of ferroportin in mouse J774 cells assessed as induce ferroportin ubiquitination and degradation at 0.5 uM incubated for 120 mins by immunoprecipitation assay; format: cell-based
[11] = target: T1, Ferroportin (Mus musculus); test: Inhibition of ferroportin in mouse J774 cells assessed as induce ferroportin ubiquitination and degradation at […] incubated for 10 mins by immunoprecipitation assay; format: cell-based
[12] = target: T1, Ferroportin (Mus musculus); test: Inhibition of ferroportin in mouse J774 cells assessed as induce ferroportin ubiquitination and degradation at […] incubated for 120 mins by immunoprecipitation assay; format: cell-based
Mus musculus [13] = test: Induction of hypoferremia in wild type C57BL/6 mouse assessed as decrease in serum iron levels at 10 mg/kg, po measured after 3 hrs post dose; format: functional; parameters: scale not given: the % may be the effect or the level left
Mus musculus [14] = test: Induction of hypoferremia in wild type C57BL/6 mouse assessed as decrease in serum iron levels at 30 mg/kg, po measured after 3 hrs post dose; format: functional; parameters: scale not given: the % may be the effect or the level left
Mus musculus [15] = test: Induction of hypoferremia in wild type C57BL/6 mouse assessed as decrease in serum iron levels at 100 mg/kg, po measured after 3 hrs post dose; format: functional; parameters: scale not given: the % may be the effect or the level left
Rattus norvegicus [16] = test: Prevention of iron absorption in anemic Wistar rat model of iron absorption assessed as inhibition of increase in serum iron at 3 mg/kg, po pre-dosed 1 hr before ferrous sulfate dosing and measured 3 hours after iron dosing; format: functional
Rattus norvegicus [17] = test: Prevention of iron absorption in anemic Wistar rat model of iron absorption assessed as inhibition of increase in serum iron at 10 mg/kg, po pre-dosed 1 hr before ferrous sulfate dosing and measured 3 hours after iron dosing; format: functional
Rattus norvegicus [18] = test: Prevention of iron absorption in anemic Wistar rat model of iron absorption assessed as inhibition of increase in serum iron at 30 mg/kg, po pre-dosed 1 hr before ferrous sulfate dosing and measured 3 hours after iron dosing; format: functional
Mus musculus [19] = test: Prevention of hyperferremia in iron overloaded beta2-microglobulin deficient female mouse assessed as reduction in serum iron level at 20 mg/kg, po measured after 3 hrs relative to control; format: functional; parameters: scale not given: the % may be the effect or the level left
Mus musculus [20] = test: Prevention of hyperferremia in iron overloaded beta2-microglobulin deficient male mouse assessed as reduction in serum iron level at 20 mg/kg, po measured after 3 hrs relative to control; format: functional; parameters: scale not given: the % may be the effect or the level left
Mus musculus [21] = test: Prevention of hyperferremia in iron overloaded beta2-microglobulin deficient female mouse assessed as reduction in serum iron level at 60 mg/kg, po measured after 3 hrs relative to control; format: functional; parameters: scale not given: the % may be the effect or the level left
Mus musculus [22] = test: Decrease in serum iron in mouse model of transfusion-independent beta-thalassemia intermedia at 20 mg/kg, po BID for 20 days relative to control; format: functional; parameters: scale not given: the % may be the effect or the level left
Mus musculus [23] = test: Decrease in serum iron in mouse model of transfusion-independent beta-thalassemia intermedia at 60 mg/kg, po BID for 20 days relative to control; format: functional; parameters: scale not given: the % may be the effect or the level left
Mus musculus [24] = test: Disease modifying capacity in mouse model of transfusion-independent beta-thalassemia intermedia assessed as increase in blood erythrocyte counts at 20 mg/kg, po BID for 20 days relative to control; format: functional
Mus musculus [25] = test: Disease modifying capacity in mouse model of transfusion-independent beta-thalassemia intermedia assessed as increase in blood erythrocyte counts at 60 mg/kg, po BID for 20 days relative to control; format: functional
Mus musculus [26] = test: Disease modifying capacity in mouse model of transfusion-independent beta-thalassemia intermedia assessed as decrease in blood reticulocyte counts at 20 mg/kg, po BID for 20 days relative to control; format: functional; parameters: scale not given: the % may be the effect or the level left
Mus musculus [27] = test: Disease modifying capacity in mouse model of transfusion-independent beta-thalassemia intermedia assessed as decrease in blood reticulocyte counts at 60 mg/kg, po BID for 20 days relative to control; format: functional; parameters: scale not given: the % may be the effect or the level left
Mus musculus [28] = test: Disease modifying capacity in mouse model of transfusion-independent beta-thalassemia intermedia assessed as increase in hematocrit levels at 20 mg/kg, po BID for 20 days relative to control; format: functional
Mus musculus [29] = test: Disease modifying capacity in mouse model of transfusion-independent beta-thalassemia intermedia assessed as increase in hematocrit levels at 60 mg/kg, po BID for 20 days relative to control; format: functional
Mus musculus [30] = test: Disease modifying capacity in mouse model of transfusion-independent beta-thalassemia intermedia assessed as decrease in RDW level at 20 mg/kg, po BID for 20 days relative to control; format: functional; parameters: scale not given: the % may be the effect or the level left
Mus musculus [31] = test: Disease modifying capacity in mouse model of transfusion-independent beta-thalassemia intermedia assessed as decrease in RDW level at 60 mg/kg, po BID for 20 days relative to control; format: functional; parameters: scale not given: the % may be the effect or the level left
Mus musculus [32] = test: Disease modifying capacity in mouse model of transfusion-independent beta-thalassemia intermedia assessed as decrease in leukocyte counts level at 20 mg/kg, po BID for 20 days relative to control; format: functional; parameters: scale not given: the % may be the effect or the level left
Mus musculus [33] = test: Disease modifying capacity in mouse model of transfusion-independent beta-thalassemia intermedia assessed as decrease in leukocyte counts level at 60 mg/kg, po BID for 20 days relative to control; format: functional; parameters: scale not given: the % may be the effect or the level left
Mus musculus [34] = test: Disease modifying capacity in mouse model of transfusion-independent beta-thalassemia intermedia assessed as decrease in bone marrow ROS levels level at 60 mg/kg, po BID for 20 days relative to control; format: functional; parameters: scale not given: the % may be the effect or the level left
Mus musculus [35] = test: Disease modifying capacity in mouse model of transfusion-independent beta-thalassemia intermedia assessed as decrease in [58Fe] spleen iron content at 20 mg/kg, po BID for 20 days relative to control; format: functional; parameters: scale not given: the % may be the effect or the level left
Mus musculus [36] = test: Disease modifying capacity in mouse model of transfusion-independent beta-thalassemia intermedia assessed as decrease in [58Fe] spleen iron content at 60 mg/kg, po BID for 20 days relative to control; format: functional; parameters: scale not given: the % may be the effect or the level left
Mus musculus [37] = test: Disease modifying capacity in mouse model of transfusion-independent beta-thalassemia intermedia assessed as prevention of liver [58Fe] loading at 20 mg/kg, po BID for 20 days relative to control; format: functional
Mus musculus [38] = test: Disease modifying capacity in mouse model of transfusion-independent beta-thalassemia intermedia assessed as prevention of liver [58Fe] loading at 60 mg/kg, po BID for 20 days relative to control; format: functional
Mus musculus [39] = test: Disease modifying capacity in mouse model of transfusion-independent beta-thalassemia intermedia assessed as decrease in serum erythropoietin at 20 mg/kg, po BID for 20 days relative to control; format: functional; parameters: scale not given: the % may be the effect or the level left
Mus musculus [40] = test: Disease modifying capacity in mouse model of transfusion-independent beta-thalassemia intermedia assessed as decrease in serum erythropoietin at 60 mg/kg, po BID for 20 days relative to control; format: functional; parameters: scale not given: the % may be the effect or the level left
Mus musculus [41] = test: Disease modifying capacity in mouse model of transfusion-independent beta-thalassemia intermedia assessed as decrease in spleen erythroferrone-mRNA at 20 mg/kg, po BID for 20 days relative to control; format: functional; parameters: scale not given: the % may be the effect or the level left

## O=C(NCc1ncccc1F)c1csc(CCNCCc2nc3ccccc3[nH]2)n1
[1]
  inhibition: Active
[2]
  inhibition: Active
Mus musculus [3]
  Activity: Dose-dependent effect
Mus musculus [4]
  Activity: Active

## O=C(NCc1ncccc1F)c1coc(CCN(CCc2nc3ccccc3[nH]2)CCc2nc3ccccc3[nH]2)n1
[5]
  inhibition: Active
[6]
  inhibition: Active

## O=C(NCc1ncccc1F)c1cnn(C2CN(CCc3nc4ccccc4[nH]3)C2)c1
[7]
  inhibition: Active
[8]
  inhibition: Active

## O=C(NCc1ncccc1F)c1coc(CCNCCc2nc3c(Cl)cccc3[nH]2)n1
[9]
  inhibition: Active
[10]
  inhibition: Active

## O=C(NCc1ncccc1F)c1cnc(CCNCCc2nc3ccccc3[nH]2)o1
[11]
  inhibition: Active
[12]
  inhibition: Active
Mus musculus [13]
  Activity: 0%
Mus musculus [14]
  Activity: 28%
Mus musculus [15]
  Activity: 51%
Rattus norvegicus [16]
  inhibition in vivo at 3 mg/kg: 2.1%
Rattus norvegicus [17]
  inhibition in vivo at 10 mg/kg: 42.6%
Rattus norvegicus [18]
  inhibition in vivo at 30 mg/kg: 64.9%
Mus musculus [19]
  Activity: 31%
Mus musculus [20]
  Activity: 31%
Mus musculus [21]
  Activity: 52%
Mus musculus [22]
  Activity: 49%
Mus musculus [23]
  Activity: 66%
Mus musculus [24]
  Activity: 4%
Mus musculus [25]
  Activity: 8%
Mus musculus [26]
  Activity: 8%
Mus musculus [27]
  Activity: 39%
Mus musculus [28]
  Activity: 0%
Mus musculus [29]
  Activity: 4%
Mus musculus [30]
  Activity: 3%
Mus musculus [31]
  Activity: 16%
Mus musculus [32]
  Activity: 32%
Mus musculus [33]
  Activity: 44%
Mus musculus [34]
  Activity: 45%
Mus musculus [35]
  Activity: 14%
Mus musculus [36]
  Activity: 48%
Mus musculus [37]
  Activity: 12%
Mus musculus [38]
  Activity: 40%
Mus musculus [39]
  Activity: 64%
Mus musculus [40]
  Activity: 78%
Mus musculus [41]
  Activity: 82%
